Six compounds from ChEMBL document CHEMBL1201862, “PubChem BioAssay data set” (2004) can be followed below.

Structures are written as SMILES.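 Briefly, cells in 96-well plates were exposed to five compound concentrations for 48 h, and endpoints were estimated by linear interpolation. GI50 marks 50% less growth.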 Calls of active or inactive are those of the source. Cut-off read from the data, not from the text of the source: active = GI50 up to about 1.1 µM and inactive = higher.

Test systems include SF-268; BT-549; SK-MEL-5; MDA-N; MDA-MB-435; Malme-3M; HOP-92; T47D; LOX IMVI; SK-OV-3; SK-MEL-28; NCI-H226; U-251; K562; MDA-MB-231; OVCAR-5; SF-539; EKVX; MCF7; KM12.
Common to all, as to test: DTP human tumour cell line panel, 48 h

Broadly, the GI50 is the concentration giving 50% growth inhibition. Take `O=C(/C=C/C(Cl)(Cl)Cl)Nc1ccc(Cl)cc1`: the GI50 in the assay with SF-268 was 3.23 µM (inactive); in the assay on BT-549, 17.2 µM (inactive); in the assay with SK-MEL-5 it was 11.1 µM (inactive); in the assay on MDA-N, 3.44 µM (inactive); in the assay on MDA-MB-435 it was 3.74 µM (inactive); in the assay with Malme-3M, 5.37 µM (inactive). For the same compound, the GI50 with HOP-92 was 2.12 µM (inactive); in the assay with T47D, 2.15 µM (inactive); in the assay on LOX IMVI, 0.8 µM (active); with SK-OV-3 it was 18.9 µM (inactive); in the assay with SK-MEL-28 it was 18.3 µM (inactive); in the assay with NCI-H226 it was 15.1 µM (inactive). For the same compound, the GI50 with U-251 is 11.6 µM (inactive); in the assay with K562, 1.62 µM (inactive); in the assay on MDA-MB-231 it was 2.49 µM (inactive); in the assay on OVCAR-5, 13.5 µM (inactive); with SF-539, 1.99 µM (inactive); in the assay on EKVX, 5.02 µM (inactive). Moreover, the GI50 with MCF7 is 17.5 µM (inactive); in the assay with KM12, 2.05 µM (inactive).

Regarding `COc1cc(C2c3cc4c(cc3OC(N3CCCC3)C2C)OCO4)cc(OC)c1OC` (stereo not given), the GI50 in the assay on SF-268 is 2.34 µM (inactive); in the assay on BT-549, 0.515 µM (active); in the assay on SK-MEL-5, 0.344 µM (active); in the assay on MDA-N it was 0.167 µM (active); with MDA-MB-435, 0.177 µM (active); in the assay with Malme-3M it was 0.578 µM (active). For the same compound, the GI50 in the assay on HOP-92 was 0.973 µM (active); in the assay with T47D, 63.1 µM (inactive); in the assay on LOX IMVI it was 0.766 µM (active); with SK-OV-3, 0.628 µM (active); with SK-MEL-28 it was 5.43 µM (inactive); in the assay on NCI-H226 it was 0.433 µM (active). The GI50 with U-251 was 0.644 µM (active); in the assay with K562, 0.361 µM (active); in the assay with MDA-MB-231 it was 0.697 µM (active); in the assay with OVCAR-5, 1.09 µM (active); in the assay with SF-539 it was 0.246 µM (active); in the assay with EKVX, 3.53 µM (inactive). In addition, the GI50 in the assay on MCF7 was 0.296 µM (active); with KM12, 0.322 µM (active).

As for `Cc1cc(N2CCOCC2)nc2ccc(Cc3ccc4nc(N5CCOCC5)cc(C)c4c3)cc12`, the GI50 with SF-268 was > 100 µM (inactive); with BT-549, 60.7 µM (inactive); in the assay on SK-MEL-5, 16.2 µM (inactive); with MDA-N, 36.6 µM (inactive); with MDA-MB-435 it was 43.3 µM (inactive); with Malme-3M, 51.1 µM (inactive). Besides, the GI50 in the assay on HOP-92 was > 100 µM (inactive); in the assay with T47D, 14.6 µM (inactive); with LOX IMVI, 32.4 µM (inactive); with SK-OV-3, > 100 µM (inactive); with SK-MEL-28 it was 39.4 µM (inactive); in the assay on NCI-H226, 33.3 µM (inactive). Moreover, the GI50 in the assay with U-251 was 26.7 µM (inactive); with K562 it was 27 µM (inactive); with MDA-MB-231, > 100 µM (inactive); in the assay with OVCAR-5, > 100 µM (inactive); with SF-539, 24.2 µM (inactive); with EKVX, 20.7 µM (inactive). The values for the GI50 with MCF7 and in the assay with KM12 were 37.8 µM (inactive) and > 100 µM (inactive), respectively.

Take `CCC(C)NC(=S)N/N=C(\C)c1ccccn1` (stereo not given): the GI50 in the assay on SF-268 is 0.351 µM (active); in the assay on BT-549, 0.444 µM (active); in the assay on SK-MEL-5, 0.155 µM (active); in the assay with MDA-N, 0.57 µM (active); in the assay with MDA-MB-435, 0.824 µM (active); with Malme-3M it was 1.83 µM (inactive). The GI50 was 0.14 µM (active) in the assay with HOP-92; < 0.01 µM (active) in the assay on T47D; < 0.0211 µM (active) in the assay with LOX IMVI; 0.188 µM (active) in the assay with SK-OV-3; 1.91 µM (inactive) in the assay with SK-MEL-28; 0.102 µM (active) in the assay on NCI-H226. For the same compound, the GI50 in the assay with U-251 was 0.126 µM (active); with K562, < 0.01 µM (active); in the assay on MDA-MB-231 it was 0.0543 µM (active); in the assay on OVCAR-5, 0.0991 µM (active); in the assay on SF-539, 0.906 µM (active); in the assay with EKVX it was < 0.01 µM (active). Moreover, the GI50 was < 0.01 µM (active) in the assay on MCF7 and 0.156 µM (active) in the assay on KM12.

For `COc1cc(/C=C/C(=O)c2c([O-])on[n+]2-c2ccccc2)ccc1O`, the GI50 is 3.89 µM (inactive) with SF-268; 2.99 µM (inactive) in the assay with BT-549; 3.78 µM (inactive) in the assay with SK-MEL-5; 2.32 µM (inactive) in the assay on MDA-N; 2.75 µM (inactive) in the assay on MDA-MB-435; 2.78 µM (inactive) in the assay on Malme-3M. The GI50 is 2.4 µM (inactive) in the assay with HOP-92; 2.77 µM (inactive) in the assay with T47D; 2.09 µM (inactive) in the assay on LOX IMVI; 3.73 µM (inactive) in the assay on SK-OV-3; 2.62 µM (inactive) in the assay on SK-MEL-28; 5.53 µM (inactive) in the assay on NCI-H226. In addition, the GI50 is 3.1 µM (inactive) with U-251; 2.7 µM (inactive) with K562; 2.98 µM (inactive) in the assay with MDA-MB-231; 11 µM (inactive) with OVCAR-5; 2.58 µM (inactive) with SF-539; 3.72 µM (inactive) with EKVX. In addition, the GI50 was 3.49 µM (inactive) in the assay with MCF7 and 2.31 µM (inactive) in the assay with KM12.

As for `CC(NNC(=O)c1cc[n+]([BH2-]C#N)cc1)c1cccc(C(F)(F)F)c1` (stereo not given), the GI50 in the assay with SF-268 is > 100 µM (inactive); in the assay with BT-549, > 100 µM (inactive); with SK-MEL-5, 72.1 µM (inactive); in the assay with MDA-N, 81.3 µM (inactive); in the assay with MDA-MB-435 it was > 100 µM (inactive); in the assay with Malme-3M, > 100 µM (inactive). Moreover, the GI50 in the assay with HOP-92 is > 100 µM (inactive); with T47D, 40.2 µM (inactive); in the assay with LOX IMVI, 71.6 µM (inactive); in the assay with SK-OV-3, 26.7 µM (inactive); in the assay on SK-MEL-28 it was > 100 µM (inactive); with NCI-H226, > 100 µM (inactive). Also, the GI50 is 88.7 µM (inactive) in the assay on U-251; 47.8 µM (inactive) in the assay on K562; > 100 µM (inactive) in the assay on MDA-MB-231; > 100 µM (inactive) with OVCAR-5; > 100 µM (inactive) in the assay on SF-539; > 100 µM (inactive) in the assay with EKVX. The results for the GI50 in the assay with MCF7 and in the assay on KM12 were 56.2 µM (inactive) and > 100 µM (inactive), respectively.
